Source: US9321760B2 (Merck Patent GmbH, priority 2011, dated 2016)

What follows are compounds tested against P70S6K (T412E mutant) (Homo sapiens (Human), UniProt P23443, T412E) (assay: P70S6K enzyme assay). Conditions: 3 nM P70S6K T412E mutant, 24 μM ATP, 1 μM FITC-AHA-AKRRRLSSLRA-OH substrate peptide, 90 min at 25° C.
Sequence of P70S6K (T412E mutant) (P23443 whole entry T412E): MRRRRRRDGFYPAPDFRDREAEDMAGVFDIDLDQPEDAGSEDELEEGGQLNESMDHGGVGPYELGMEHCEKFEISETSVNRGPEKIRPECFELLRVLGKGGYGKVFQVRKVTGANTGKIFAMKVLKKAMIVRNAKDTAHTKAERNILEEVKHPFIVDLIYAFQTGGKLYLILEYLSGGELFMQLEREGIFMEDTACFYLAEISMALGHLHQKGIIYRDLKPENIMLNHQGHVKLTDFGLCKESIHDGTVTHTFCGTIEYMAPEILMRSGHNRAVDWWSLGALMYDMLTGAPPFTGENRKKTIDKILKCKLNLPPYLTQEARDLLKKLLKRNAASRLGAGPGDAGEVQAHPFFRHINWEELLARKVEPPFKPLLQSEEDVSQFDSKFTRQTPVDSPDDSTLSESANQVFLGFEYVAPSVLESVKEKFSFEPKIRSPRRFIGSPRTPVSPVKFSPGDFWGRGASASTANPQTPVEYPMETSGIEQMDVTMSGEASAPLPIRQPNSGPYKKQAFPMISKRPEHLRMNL
Format: biochemical
Summary of the method: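 P70S6K T412E mutant (3 nM) with 24 μM ATP and 1 μM FITC-labelled S6-derived peptide in Hepes pH 7.5, MgCl2, DTT, Brij buffer; 90 min at 25° C, stopped with EDTA. Phosphorylated product and substrate peptides separated by microfluidic mobility shift; IC50 values derived.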
With `COC[C@H](NC(=O)C1(N)CCN(c2ncnc(N)c2-c2cn[nH]c2)CC1)c1ccc(Cl)cc1` [Example 240, 4-Amino-1-[6-amino-5-(1H-pyrazol-4-yl)-pyrimidin-4-yl]-piperidine-4-carboxylic acid [(R)-1-(4-chloro-phenyl)-2-methoxy-ethyl]-amide] the IC50 was 100 nM. Work on `COC[C@H](NC(=O)C1(N)CCN(c2ncnc(N)c2C#N)CC1)c1ccc(Cl)cc1` [Example 241, 4-Amino-1-(6-amino-5-cyano-pyrimidin-4-yl)-piperidine-4-carboxylic acid [(R)-1-(4-chloro-phenyl)-2-methoxy-ethyl]-amide] yielded an IC50 of 210 nM. In the case of `N#Cc1c(N)ncnc1N1CCC(N)(C(=O)N[C@@H](CCO)c2ccc(Cl)cc2)CC1` [Example 242, 4-Amino-1-(6-amino-5-cyano-pyrimidin-4-yl)-piperidine-4-carboxylic acid [(S)-1-(4-chloro-phenyl)-3-hydroxy-propyl]-amide], the IC50 is reported as 98 nM. `N#Cc1c(N)ncnc1N1CCC(N)(C(=O)N[C@@H](CCO)c2ccc(F)cc2)CC1` [Example 243, 4-Amino-1-(6-amino-5-cyano-pyrimidin-4-yl)-piperidine-4-carboxylic acid [(S)-1-(4-fluoro-phenyl)-3-hydroxy-propyl]-amide] showed an IC50 of 390 nM. Work on `C[C@H](NC(=O)C1(N)CCN(c2ncnc(N)c2C(N)=O)CC1)c1ccc(Cl)cc1` [Example 244, 4-Amino-6-{4-amino-4-[(S)-1-(4-chloro-phenyl)-ethylcarbamoyl]-piperidin-1-yl}-pyrimidine-5-carboxylic acid amide] yielded an IC50 of 20000 nM. Work on `CC[C@H](NC(=O)C1(N)CCN(c2ncnc(N)c2C(N)=O)CC1)c1ccc(Cl)cc1` [Example 245, 4-Amino-6-{4-amino-4-[(S)-1-(4-chloro-phenyl)-propylcarbamoyl]-piperidin-1-yl}-pyrimidine-5-carboxylic acid amide] yielded an IC50 of 2400 nM. `COC[C@H](NC(=O)C1(N)CCN(c2ncnc(N)c2C(N)=O)CC1)c1ccc(Cl)cc1` [Example 246, 4-Amino-6-{4-amino-4-[(R)-1-(4-chloro-phenyl)-2-methoxy-ethylcarbamoyl]-piperidin-1-yl}-pyrimidine-5-carboxylic acid amide] gave an IC50 of 5000 nM. Work on `NC(=O)c1c(N)ncnc1N1CCC(N)(C(=O)N[C@@H](CCO)c2ccc(Cl)cc2)CC1` [Example 247] yielded an IC50 of 3600 nM. With `Nc1ncnc(N2CC[C@@](N)(CNC(=O)c3ccc(F)cc3F)C2)c1-c1ccc(F)cc1` [Example 248, N—{(R)-3-Amino-1-[6-amino-5-(4-fluoro-phenyl)-pyrimidin-4-yl]-pyrrolidin-3-ylmethyl}-2,4-difluoro-benzamide] the IC50 was 290 nM.
